The record followed here is paper PMC4551668 (Microbial Cell Factories, 2015).

Assay [1] has as its target MPH (Ochr-MPH) (Ochrobactrum sp. M231, UniProt B2Z3X1). Conditions: CHBD-MPH, tag excised by Kex2; substrate not named, taken from enzyme name and text; assay conditions only by reference. From the text:
(§1) steady-state kinetics, purified enzyme, standard MPH assay on MPH (Ochr-MPH)

Assay [2] has as its target MPH (Ochr-MPH) (Ochrobactrum sp. M231, UniProt B2Z3X1, K277D/K284Q/K285R). Conditions: CHBD-DQR; same.
Excerpt: as §1

The target in assay [3] is MPH (Ochr-MPH) (Ochrobactrum sp. M231, UniProt B2Z3X1, K284Q/K285R). The following applies: CHBD-QR; same.
Excerpt: as §1

Sequence of MPH (Ochr-MPH) (Ochrobactrum sp. M231, UniProt B2Z3X1, K284Q/K285R) (B2Z3X1 entry or part of it K284Q/K285R): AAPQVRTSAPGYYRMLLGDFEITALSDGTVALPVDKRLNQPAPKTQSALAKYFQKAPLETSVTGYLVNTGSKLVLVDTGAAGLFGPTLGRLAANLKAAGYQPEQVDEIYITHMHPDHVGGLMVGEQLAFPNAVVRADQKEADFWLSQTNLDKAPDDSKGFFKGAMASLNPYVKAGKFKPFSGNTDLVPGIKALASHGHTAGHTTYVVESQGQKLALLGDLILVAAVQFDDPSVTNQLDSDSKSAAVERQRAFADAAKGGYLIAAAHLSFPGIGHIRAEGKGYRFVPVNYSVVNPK
Sequence of MPH (Ochr-MPH) (Ochrobactrum sp. M231, UniProt B2Z3X1) (B2Z3X1 entry or part of it): as the sequence (B2Z3X1 entry or part of it K284Q/K285R) above, with Q249K, R250K counted along it
Sequence of MPH (Ochr-MPH) (Ochrobactrum sp. M231, UniProt B2Z3X1, K277D/K284Q/K285R) (B2Z3X1 entry or part of it K277D/K284Q/K285R): as the sequence (B2Z3X1 entry or part of it K284Q/K285R) above, with K242D counted along it

As usually defined, the Km is the substrate concentration at which the rate is half of its maximum. For `COP(=S)(OC)Oc1ccc([N+](=O)[O-])cc1` [methyl parathion], the Km came to 86.9 ± 5.85 µM at MPH (Ochr-MPH) [1], 168 ± 7.57 µM on MPH (Ochr-MPH) [2] and 119 ± 8.26 µM on MPH (Ochr-MPH) [3].
